Measured values from patent US10131652B2, “Pyrimidinyloxy benzene derivatives as herbicides” (E. I. DU PONT DE NEMOURS AND COMPANY, priority 2014, dated 2018).
Read-outs that look alike come from different tables or passages of the source.

How the values were obtained:
Assay type in all cases: in vivo
[1] = tested on: ducksalad (Heteranthera limosa); assay: Test C flooded paddy test plant response; settings: Heteranthera limosa; Flood, 250 g ai/ha; scale of 0 to 100 where 0 is no effect and 100 is complete control; 13 to 15 days; read-out: Ducksalad plant response rating
Outline: (§1)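 Plants grown to 2-leaf stage, flooded 3 cm above soil; compounds applied directly into paddy water, depth kept throughout. Visual rating versus controls after 13 to 15 days in greenhouse, 0 (no effect) to 100 (complete control).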

[2] = tested on: barnyardgrass (Echinochloa crus-galli); assay: Test C flooded paddy test plant response; settings: Echinochloa crus-galli; Flood, 250 g ai/ha; scale of 0 to 100 where 0 is no effect and 100 is complete control; 13 to 15 days; read-out: Barnyardgrass plant response rating
Outline: as §1

rice (Oryza sativa) = assay: Test C flooded paddy test plant response; settings: Oryza sativa; Flood, 250 g ai/ha; scale of 0 to 100 where 0 is no effect and 100 is complete control; 13 to 15 days; read-out: Rice plant response rating
Outline: as §1

[3] = tested on: small-flower umbrella sedge (Cyperus difformis); assay: Test C flooded paddy test plant response; settings: Cyperus difformis; Flood, 250 g ai/ha; scale of 0 to 100 where 0 is no effect and 100 is complete control; 13 to 15 days; read-out: Sedge, Umbrella plant response rating
Outline: as §1

[4] = tested on: pigweed (Amaranthus retroflexus); assay: Test D pre-/postemergence plant response; settings: Amaranthus retroflexus; for pest or weed control at 16 g/ha: 16 g ai/ha; for pest or weed control at 31 g/ha: 31 g ai/ha; for pest or weed control at 62 g/ha: 62 g ai/ha; for pest or weed control at 125 g/ha: 125 g ai/ha
Outline: (§2)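 Visual rating, 0–100 scale (0 = no effect, 100 = complete control), versus untreated controls 13 to 15 days after treatment in greenhouse. Preemergence: seeds in loam/sand soil. Postemergence: 2 to 18 cm plants, 1- to 4-leaf stage, peat-based medium. Compounds formulated in non-phytotoxic solvent plus surfactant.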

[5] = tested on: giant foxtail (Setaria faberii); assay: Test D pre-/postemergence plant response; settings: Setaria faberi; for pest or weed control at 16 g/ha: 16 g ai/ha; for pest or weed control at 31 g/ha: 31 g ai/ha; for pest or weed control at 62 g/ha: 62 g ai/ha; for pest or weed control at 125 g/ha: 125 g ai/ha
Outline: as §2

[6] = tested on: blackgrass (Alopecurus myosuroides); assay: Test D pre-/postemergence plant response; settings: Alopecurus myosuroides; for pest or weed control at 16 g/ha: 16 g ai/ha; for pest or weed control at 31 g/ha: 31 g ai/ha; for pest or weed control at 62 g/ha: 62 g ai/ha; for pest or weed control at 125 g/ha: 125 g ai/ha
Outline: as §2

[7] = tested on: barnyardgrass (Echinochloa crus-galli); assay: Test D pre-/postemergence plant response; settings: Echinochloa crus-galli; for pest or weed control at 16 g/ha: 16 g ai/ha; for pest or weed control at 16 g/ha / pest or weed control at 31 g/ha: scale 0 to 100 (0 no effect, 100 complete control); for pest or weed control at 31 g/ha: 31 g ai/ha; for pest or weed control at 62 g/ha: 62 g ai/ha; for pest or weed control at 125 g/ha: 125 g ai/ha
Outline: as §2

[8] = tested on: velvetleaf (Abutilon theophrasti); assay: Test D pre-/postemergence plant response; settings: Abutilon theophrasti; for pest or weed control at 16 g/ha: 16 g ai/ha; for pest or weed control at 31 g/ha: 31 g ai/ha; for pest or weed control at 62 g/ha: 62 g ai/ha; for pest or weed control at 125 g/ha: 125 g ai/ha
Outline: as §2

[9] = tested on: johnsongrass (Sorghum halepense); assay: Test D pre-/postemergence plant response; settings: Sorghum halepense; for pest or weed control at 16 g/ha: 16 g ai/ha; for pest or weed control at 31 g/ha: 31 g ai/ha; for pest or weed control at 62 g/ha: 62 g ai/ha; for pest or weed control at 125 g/ha: 125 g ai/ha
Outline: as §2

[10] = tested on: oilseed rape (Brassica napus); assay: Test D pre-/postemergence plant response; settings: Brassica napus; for plant injury at 16 g/ha: 16 g ai/ha; for plant injury at 31 g/ha: 31 g ai/ha; for plant injury at 62 g/ha: 62 g ai/ha; for plant injury at 125 g/ha: 125 g ai/ha
Outline: as §2

[11] = post-emergence, Postemergence, scale 0 to 100 (0 no effect, 100 complete control), read-out: Pigweed plant response rating
[12] = post-emergence, Postemergence, scale 0 to 100, 0 no effect, 100 complete control, read-out: Plant response rating, Pigweed
[13] = pre-emergence, Preemergence, scale 0 to 100 (0 no effect, 100 complete control), read-out: Plant response rating, Pigweed
[14] = post-emergence, Postemergence, scale 0 to 100 (0 no effect, 100 complete control), read-out: Foxtail, Giant plant response rating
[15] = post-emergence, Postemergence, scale 0 to 100, 0 no effect, 100 complete control, read-out: Plant response rating, Foxtail, Giant
[16] = pre-emergence, Preemergence, scale 0 to 100 (0 no effect, 100 complete control), read-out: Plant response rating, Foxtail, Giant
[17] = post-emergence, Postemergence, scale 0 to 100 (0 no effect, 100 complete control), read-out: Blackgrass plant response rating
[18] = post-emergence, Postemergence, scale 0 to 100, 0 no effect, 100 complete control, read-out: Plant response rating, Blackgrass
[19] = pre-emergence, Preemergence, scale 0 to 100 (0 no effect, 100 complete control), read-out: Plant response rating, Blackgrass
[20] = post-emergence, Postemergence, read-out: Barnyardgrass plant response rating
[21] = post-emergence, Postemergence, scale 0 to 100, 0 no effect, 100 complete control, read-out: Plant response rating, Barnyardgrass
[22] = pre-emergence, Preemergence, read-out: Plant response rating (scale 0 to 100), Barnyardgrass
[23] = pre-emergence, Preemergence, read-out: Plant response rating, Barnyardgrass
[24] = post-emergence, Postemergence, scale 0 to 100 (0 no effect, 100 complete control), read-out: Velvetleaf plant response rating
[25] = post-emergence, Postemergence, scale 0 to 100, 0 no effect, 100 complete control, read-out: Plant response rating, Velvetleaf
[26] = pre-emergence, Preemergence, scale 0 to 100 (0 no effect, 100 complete control), read-out: Plant response rating, Velvetleaf
[27] = post-emergence, Postemergence, scale 0 to 100 (0 no effect, 100 complete control), read-out: Johnsongrass plant response rating
[28] = post-emergence, Postemergence, scale 0 to 100, 0 no effect, 100 complete control, read-out: Plant response rating, Johnsongrass
[29] = pre-emergence, Preemergence, scale 0 to 100 (0 no effect, 100 complete control), read-out: Plant response rating, Johnsongrass
[30] = post-emergence, Postemergence, scale 0 to 100 (0 no effect, 100 complete control), read-out: Oilseed Rape plant response rating
[31] = post-emergence, Postemergence, scale 0 to 100, 0 no effect, 100 complete control, read-out: Plant response rating, Oilseed Rape
[32] = pre-emergence, Preemergence, scale 0 to 100 (0 no effect, 100 complete control), read-out: Plant response rating, Oilseed Rape

SMILES: FC(F)(F)c1cc(-c2ccccc2Oc2ncc(Cl)cn2)on1 [Compound 63, 5-chloro-2-[2-[3-(trifluoromethyl)-5-isoxazolyl]phenoxy]pyrimidine]
- pest or weed control at 250 g/ha [1]: 100%
- pest or weed control at 250 g/ha [2]: 60%
- plant injury at 250 g/ha (rice (Oryza sativa)): 25%
- pest or weed control at 250 g/ha [3]: 85%
- pest or weed control at 16 g/ha [4, 11]: 85%
- pest or weed control at 31 g/ha [4, 11]: 85%
- pest or weed control at 62 g/ha [4, 12]: 90%
- pest or weed control at 125 g/ha [4, 12]: 95%
- pest or weed control at 125 g/ha ([4]; pre-emergence, Preemergence, read-out: Plant response rating (scale 0 to 100), Pigweed): 100%
- pest or weed control at 16 g/ha [4, 13]: 95%
- pest or weed control at 31 g/ha [4, 13]: 100%
- pest or weed control at 62 g/ha [4, 13]: 100%
- pest or weed control at 16 g/ha [5, 14]: 0%
- pest or weed control at 31 g/ha [5, 14]: 5%
- pest or weed control at 62 g/ha [5, 15]: 10%
- pest or weed control at 125 g/ha [5, 15]: 20%
- pest or weed control at 125 g/ha ([5]; pre-emergence, Preemergence, read-out: Plant response rating (scale 0 to 100), Foxtail, Giant): 100%
- pest or weed control at 16 g/ha [5, 16]: 30%
- pest or weed control at 31 g/ha [5, 16]: 80%
- pest or weed control at 62 g/ha [5, 16]: 98%
- pest or weed control at 16 g/ha [6, 17]: 5%
- pest or weed control at 31 g/ha [6, 17]: 10%
- pest or weed control at 62 g/ha [6, 18]: 20%
- pest or weed control at 125 g/ha [6, 18]: 25%
- pest or weed control at 125 g/ha ([6]; pre-emergence, Preemergence, read-out: Plant response rating (scale 0 to 100), Blackgrass): 90%
- pest or weed control at 16 g/ha [6, 19]: 30%
- pest or weed control at 31 g/ha [6, 19]: 85%
- pest or weed control at 62 g/ha [6, 19]: 90%
- pest or weed control at 16 g/ha [7, 20]: 5%
- pest or weed control at 31 g/ha [7, 20]: 10%
- pest or weed control at 62 g/ha [7, 21]: 10%
- pest or weed control at 125 g/ha [7, 21]: 10%
- pest or weed control at 62 g/ha [7, 22]: 98%
- pest or weed control at 125 g/ha [7, 22]: 100%
- pest or weed control at 16 g/ha [7, 23]: 30%
- pest or weed control at 31 g/ha [7, 23]: 65%
- pest or weed control at 16 g/ha [8, 24]: 10%
- pest or weed control at 31 g/ha [8, 24]: 25%
- pest or weed control at 62 g/ha [8, 25]: 40%
- pest or weed control at 125 g/ha [8, 25]: 40%
- pest or weed control at 125 g/ha ([8]; pre-emergence, Preemergence, read-out: Plant response rating (scale 0 to 100), Velvetleaf): 100%
- pest or weed control at 16 g/ha [8, 26]: 40%
- pest or weed control at 31 g/ha [8, 26]: 100%
- pest or weed control at 62 g/ha [8, 26]: 100%
- pest or weed control at 16 g/ha [9, 27]: 5%
- pest or weed control at 31 g/ha [9, 27]: 5%
- pest or weed control at 62 g/ha [9, 28]: 25%
- pest or weed control at 125 g/ha [9, 28]: 45%
- pest or weed control at 125 g/ha ([9]; pre-emergence, Preemergence, read-out: Plant response rating (scale 0 to 100), Johnsongrass): 85%
- pest or weed control at 16 g/ha [9, 29]: 5%
- pest or weed control at 31 g/ha [9, 29]: 35%
- pest or weed control at 62 g/ha [9, 29]: 70%
- plant injury at 16 g/ha [10, 30]: 60%
- plant injury at 31 g/ha [10, 30]: 90%
- plant injury at 62 g/ha [10, 31]: 98%
- plant injury at 125 g/ha [10, 31]: 100%
- plant injury at 125 g/ha ([10]; pre-emergence, Preemergence, read-out: Plant response rating (scale 0 to 100), Oilseed Rape): 98%
- plant injury at 16 g/ha [10, 32]: 70%
- plant injury at 31 g/ha [10, 32]: 98%
- plant injury at 62 g/ha [10, 32]: 98%
